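Five compound concentrations were applied to cells in 96-well plates for 48 hours; endpoints were derived by simple linear interpolation of the resulting dose-response curve. GI50 is the concentration that inhibits growth by half.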 Active and inactive are the calls of the source. No stated cut-off is given here; in the data, active = GI50 up to about 1.1 µM and inactive = higher.
Tests used:
Test in all cases: NCI tumour cell line growth inhibition, 48 h
786-0 = tested on: 786-0
A498 = tested on: A498
A549 = tested on: A549
ACHN = tested on: ACHN
CAKI-1 = tested on: CAKI-1
CCRF-CEM = tested on: CCRF-CEM
COLO 205 = tested on: COLO 205
DLD-1 = tested on: DLD-1
DMS-114 = tested on: DMS-114
DMS-273 = tested on: DMS-273
EKVX = tested on: EKVX
HCC 2998 = tested on: HCC 2998
HCT-116 = tested on: HCT-116
HCT-15 = tested on: HCT-15
HL-60 = tested on: HL-60
HOP-18 = tested on: HOP-18
HOP-62 = tested on: HOP-62
HOP-92 = tested on: HOP-92
HT-29 = tested on: HT-29
IGROV-1 = tested on: IGROV-1
K562 = tested on: K562
KM-20L2 = tested on: KM-20L2
KM12 = tested on: KM12
LOX IMVI = tested on: LOX IMVI
LXFL 529 = tested on: LXFL 529
M14 = tested on: M14
M19-MEL = tested on: M19-MEL
MOLT-4 = tested on: MOLT-4
Malme-3M = tested on: Malme-3M
NCI-H226 = tested on: NCI-H226
NCI-H23 = tested on: NCI-H23
NCI-H460 = tested on: NCI-H460
NCI-H522 = tested on: NCI-H522
OVCAR-3 = tested on: OVCAR-3
OVCAR-4 = tested on: OVCAR-4
OVCAR-5 = tested on: OVCAR-5
OVCAR-8 = tested on: OVCAR-8
RPMI-8226 = tested on: RPMI-8226
RXF 393 = tested on: RXF 393
RXF 631 = tested on: RXF 631
SF-268 = tested on: SF-268
SF-295 = tested on: SF-295
SF-539 = tested on: SF-539
SK-MEL-28 = tested on: SK-MEL-28
SK-MEL-2 = tested on: SK-MEL-2
SK-MEL-5 = tested on: SK-MEL-5
SK-OV-3 = tested on: SK-OV-3
SN12C = tested on: SN12C
SNB-19 = tested on: SNB-19
SNB-75 = tested on: SNB-75
SNB-78 = tested on: SNB-78
SR = tested on: SR
TK-10 = tested on: TK-10
U-251 = tested on: U-251
UACC-257 = tested on: UACC-257
UACC-62 = tested on: UACC-62
UO-31 = tested on: UO-31
XF498 = tested on: XF498

CCOC(OC1=CCCC1)C(C)[Se]c1ccccc1 (stereo not drawn)
GI50 (786-0): 19.1 µM (inactive)
GI50 (A498): 18.2 µM (inactive)
GI50 (A549): 34.8 µM (inactive)
GI50 (ACHN): 61.8 µM (inactive)
GI50 (CAKI-1): 65.8 µM (inactive)
GI50 (CCRF-CEM): 15.2 µM (inactive)
GI50 (COLO 205): 18.7 µM (inactive)
GI50 (DLD-1): 21.6 µM (inactive)
GI50 (DMS-114): 6.81 µM (inactive)
GI50 (DMS-273): 16.9 µM (inactive)
GI50 (EKVX): 34.2 µM (inactive)
GI50 (HCC 2998): 32.4 µM (inactive)
GI50 (HCT-116): 20.9 µM (inactive)
GI50 (HCT-15): 16.8 µM
GI50 (HL-60): 14.6 µM (inactive)
GI50 (HOP-18): 28.2 µM (inactive)
GI50 (HOP-62): > 100 µM (inactive)
GI50 (HOP-92): 51.2 µM (inactive)
GI50 (HT-29): 23.3 µM (inactive)
GI50 (IGROV-1): 41 µM (inactive)
GI50 (K562): 55.5 µM (inactive)
GI50 (KM-20L2): 29.4 µM (inactive)
GI50 (KM12): 43.8 µM (inactive)
GI50 (LOX IMVI): 14.7 µM (inactive)
GI50 (LXFL 529): 35.7 µM (inactive)
GI50 (M14): 36.4 µM (inactive)
GI50 (M19-MEL): 24.4 µM (inactive)
GI50 (MOLT-4): 22.3 µM (inactive)
GI50 (Malme-3M): 32.8 µM (inactive)
GI50 (NCI-H226): 36.1 µM (inactive)
GI50 (NCI-H23): 26.9 µM (inactive)
GI50 (NCI-H460): 19.6 µM (inactive)
GI50 (NCI-H522): 17.9 µM (inactive)
GI50 (OVCAR-3): 34.5 µM (inactive)
GI50 (OVCAR-4): 44.2 µM (inactive)
GI50 (OVCAR-5): 28.9 µM (inactive)
GI50 (OVCAR-8): 39.5 µM (inactive)
GI50 (RPMI-8226): 18.1 µM (inactive)
GI50 (RXF 393): 32.9 µM (inactive)
GI50 (RXF 631): 16.5 µM (inactive)
GI50 (SF-268): 17.6 µM (inactive)
GI50 (SF-295): 31.5 µM (inactive)
GI50 (SF-539): 23.8 µM (inactive)
GI50 (SK-MEL-28): 42.1 µM (inactive)
GI50 (SK-MEL-2): 48.4 µM (inactive)
GI50 (SK-MEL-5): 18.3 µM (inactive)
GI50 (SK-OV-3): > 100 µM (inactive)
GI50 (SN12C): 30.7 µM (inactive)
GI50 (SNB-19): > 100 µM (inactive)
GI50 (SNB-75): 39.3 µM (inactive)
GI50 (SNB-78): > 100 µM (inactive)
GI50 (SR): 14.2 µM (inactive)
GI50 (TK-10): > 100 µM (inactive)
GI50 (U-251): 16.3 µM (inactive)
GI50 (UACC-257): 36 µM (inactive)
GI50 (UACC-62): 23.9 µM (inactive)
GI50 (UO-31): 39.3 µM (inactive)
GI50 (XF498): 20.4 µM (inactive)

— ChEMBL document CHEMBL1201862, “PubChem BioAssay data set” (2004)
